What follows are molecules tested on 843126-344-R-J1-PDC complex spheroid viability (assay: Anticancer human tumor 843126-344-R-J1-PDC patient-derived melanoma cell line growth inhibition [POLQ]). Conditions: second compound 3.16 µM; first compound 0.0316 µM; active compounds read low.
In short: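 Three-cell-type spheroids modelling solid tumor plus stroma served as the readout system; POL inhibitors were tested individually and in combination, concentration ranges set by clinical Cmax where known.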
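Further: spheroids exposed to drugs for seven days before readout.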

**Q.** Which viability, T/C does the source give for `Nc1ccn(C2OC(CO)C(O)C2(F)F)c(=O)n1` (stereo unspecified) + Nc1ccc(C#CCN(C(=O)Cc2ncc(C(F)(F)F)cc2C(F)(F)F)c2ccc(F)cc2)nn1 here?
**A.** 36.4%

**Q.** For `O=C(c1cc(Cc2n[nH]c(=O)c3ccccc23)ccc1F)N1CCN(C(=O)C2CC2)CC1` + Nc1ccc(C#CCN(C(=O)Cc2ncc(C(F)(F)F)cc2C(F)(F)F)c2ccc(F)cc2)nn1, which viability, T/C is on record?
**A.** 92.7%

**Q.** For `O=c1[nH]cc(F)c(=O)[nH]1` + Nc1ccc(C#CCN(C(=O)Cc2ncc(C(F)(F)F)cc2C(F)(F)F)c2ccc(F)cc2)nn1, which viability, T/C is on record?
**A.** 107%

Same assay, conditions: second compound 3.16 µM; first compound 0.1 µM; active compounds read low

**Q.** For `C=CCn1c(=O)c2cnc(Nc3ccc(N4CCN(C)CC4)cc3)nc2n1-c1cccc(C(C)(C)O)n1` + Nc1ccc(C#CCN(C(=O)Cc2ncc(C(F)(F)F)cc2C(F)(F)F)c2ccc(F)cc2)nn1, which viability, T/C is on record?
**A.** 106%

**Q.** For `CCc1c2c(nc3ccc(O)cc13)-c1cc3c(c(=O)n1C2)COC(=O)[C@]3(O)CC` + Nc1ccc(C#CCN(C(=O)Cc2ncc(C(F)(F)F)cc2C(F)(F)F)c2ccc(F)cc2)nn1, which viability, T/C is on record?
**A.** 72.5%

**Q.** With `COc1cccc(OCCCN)c1-c1cc(Nc2cnc(C#N)cn2)n[nH]1` + Nc1ccc(C#CCN(C(=O)Cc2ncc(C(F)(F)F)cc2C(F)(F)F)c2ccc(F)cc2)nn1 as the molecule, how does the viability, T/C read?
**A.** 41.2%

**Q.** For `Nc1ccn(C2OC(CO)C(O)C2(F)F)c(=O)n1` (stereo unspecified) + Nc1ccc(C#CCN(C(=O)Cc2ncc(C(F)(F)F)cc2C(F)(F)F)c2ccc(F)cc2)nn1, which viability, T/C is on record?
**A.** 35.2%

**Q.** For `O=C(c1cc(Cc2n[nH]c(=O)c3ccccc23)ccc1F)N1CCN(C(=O)C2CC2)CC1` + Nc1ccc(C#CCN(C(=O)Cc2ncc(C(F)(F)F)cc2C(F)(F)F)c2ccc(F)cc2)nn1, which viability, T/C is on record?
**A.** 93.7%

**Q.** Which viability, T/C does the source give for `O=c1[nH]cc(F)c(=O)[nH]1` + Nc1ccc(C#CCN(C(=O)Cc2ncc(C(F)(F)F)cc2C(F)(F)F)c2ccc(F)cc2)nn1 here?
**A.** 87.3%

Same assay, conditions: second compound 3.16 µM; first compound 0.316 µM; active compounds read low

**Q.** For `C=CCn1c(=O)c2cnc(Nc3ccc(N4CCN(C)CC4)cc3)nc2n1-c1cccc(C(C)(C)O)n1` + Nc1ccc(C#CCN(C(=O)Cc2ncc(C(F)(F)F)cc2C(F)(F)F)c2ccc(F)cc2)nn1, which viability, T/C is on record?
**A.** 75%

**Q.** For `CCc1c2c(nc3ccc(O)cc13)-c1cc3c(c(=O)n1C2)COC(=O)[C@]3(O)CC` + Nc1ccc(C#CCN(C(=O)Cc2ncc(C(F)(F)F)cc2C(F)(F)F)c2ccc(F)cc2)nn1, which viability, T/C is on record?
**A.** 63.3%

**Q.** With `COc1cccc(OCCCN)c1-c1cc(Nc2cnc(C#N)cn2)n[nH]1` + Nc1ccc(C#CCN(C(=O)Cc2ncc(C(F)(F)F)cc2C(F)(F)F)c2ccc(F)cc2)nn1 as the molecule, how does the viability, T/C read?
**A.** 38.6%

**Q.** With `Nc1ccn(C2OC(CO)C(O)C2(F)F)c(=O)n1` (stereo unspecified) + Nc1ccc(C#CCN(C(=O)Cc2ncc(C(F)(F)F)cc2C(F)(F)F)c2ccc(F)cc2)nn1 as the molecule, how does the viability, T/C read?
**A.** 39.9%

**Q.** For `O=C(c1cc(Cc2n[nH]c(=O)c3ccccc23)ccc1F)N1CCN(C(=O)C2CC2)CC1` + Nc1ccc(C#CCN(C(=O)Cc2ncc(C(F)(F)F)cc2C(F)(F)F)c2ccc(F)cc2)nn1, which viability, T/C is on record?
**A.** 85.8%

**Q.** For `O=c1[nH]cc(F)c(=O)[nH]1` + Nc1ccc(C#CCN(C(=O)Cc2ncc(C(F)(F)F)cc2C(F)(F)F)c2ccc(F)cc2)nn1, which viability, T/C is on record?
**A.** 82.8%

Same assay, conditions: second compound 3.16 µM; first compound 1 µM; active compounds read low

**Q.** How did the viability, T/C turn out when `C=CCn1c(=O)c2cnc(Nc3ccc(N4CCN(C)CC4)cc3)nc2n1-c1cccc(C(C)(C)O)n1` + Nc1ccc(C#CCN(C(=O)Cc2ncc(C(F)(F)F)cc2C(F)(F)F)c2ccc(F)cc2)nn1 was run?
**A.** 59.8%

**Q.** `CCc1c2c(nc3ccc(O)cc13)-c1cc3c(c(=O)n1C2)COC(=O)[C@]3(O)CC` + Nc1ccc(C#CCN(C(=O)Cc2ncc(C(F)(F)F)cc2C(F)(F)F)c2ccc(F)cc2)nn1 was tested. Which viability, T/C did it give?
**A.** 52.2%

**Q.** With `COc1cccc(OCCCN)c1-c1cc(Nc2cnc(C#N)cn2)n[nH]1` + Nc1ccc(C#CCN(C(=O)Cc2ncc(C(F)(F)F)cc2C(F)(F)F)c2ccc(F)cc2)nn1 as the molecule, how does the viability, T/C read?
**A.** 38.8%

**Q.** Which viability, T/C does the source give for `Nc1ccn(C2OC(CO)C(O)C2(F)F)c(=O)n1` (stereo unspecified) + Nc1ccc(C#CCN(C(=O)Cc2ncc(C(F)(F)F)cc2C(F)(F)F)c2ccc(F)cc2)nn1 here?
**A.** 36.2%

**Q.** With `O=C(c1cc(Cc2n[nH]c(=O)c3ccccc23)ccc1F)N1CCN(C(=O)C2CC2)CC1` + Nc1ccc(C#CCN(C(=O)Cc2ncc(C(F)(F)F)cc2C(F)(F)F)c2ccc(F)cc2)nn1 as the molecule, how does the viability, T/C read?
**A.** 92.2%

**Q.** `O=c1[nH]cc(F)c(=O)[nH]1` + Nc1ccc(C#CCN(C(=O)Cc2ncc(C(F)(F)F)cc2C(F)(F)F)c2ccc(F)cc2)nn1 was tested. Which viability, T/C did it give?
**A.** 82.3%

Same assay, conditions: second compound 3.16 µM; first compound 3.16 µM; active compounds read low

**Q.** `Nc1ccn(C2OC(CO)C(O)C2(F)F)c(=O)n1` (stereo unspecified) + Nc1ccc(C#CCN(C(=O)Cc2ncc(C(F)(F)F)cc2C(F)(F)F)c2ccc(F)cc2)nn1 was tested. Which viability, T/C did it give?
**A.** 37.5%

**Q.** With `O=C(c1cc(Cc2n[nH]c(=O)c3ccccc23)ccc1F)N1CCN(C(=O)C2CC2)CC1` + Nc1ccc(C#CCN(C(=O)Cc2ncc(C(F)(F)F)cc2C(F)(F)F)c2ccc(F)cc2)nn1 as the molecule, how does the viability, T/C read?
**A.** 80.6%

**Q.** `O=c1[nH]cc(F)c(=O)[nH]1` + Nc1ccc(C#CCN(C(=O)Cc2ncc(C(F)(F)F)cc2C(F)(F)F)c2ccc(F)cc2)nn1 was tested. Which viability, T/C did it give?
**A.** 80%

Same assay, conditions: second compound 3.16 µM; first compound 10 µM; active compounds read low

**Q.** How did the viability, T/C turn out when `Nc1ccn(C2OC(CO)C(O)C2(F)F)c(=O)n1` (stereo unspecified) + Nc1ccc(C#CCN(C(=O)Cc2ncc(C(F)(F)F)cc2C(F)(F)F)c2ccc(F)cc2)nn1 was run?
**A.** 36.5%

**Q.** How did the viability, T/C turn out when `O=C(c1cc(Cc2n[nH]c(=O)c3ccccc23)ccc1F)N1CCN(C(=O)C2CC2)CC1` + Nc1ccc(C#CCN(C(=O)Cc2ncc(C(F)(F)F)cc2C(F)(F)F)c2ccc(F)cc2)nn1 was run?
**A.** 82.6%

**Q.** For `O=c1[nH]cc(F)c(=O)[nH]1` + Nc1ccc(C#CCN(C(=O)Cc2ncc(C(F)(F)F)cc2C(F)(F)F)c2ccc(F)cc2)nn1, which viability, T/C is on record?
**A.** 82.4%

Same assay, conditions: second compound 10 µM; first compound 0.00316 µM; active compounds read low

**Q.** With `C=CCn1c(=O)c2cnc(Nc3ccc(N4CCN(C)CC4)cc3)nc2n1-c1cccc(C(C)(C)O)n1` + Nc1ccc(C#CCN(C(=O)Cc2ncc(C(F)(F)F)cc2C(F)(F)F)c2ccc(F)cc2)nn1 as the molecule, how does the viability, T/C read?
**A.** 94.1%

**Q.** With `CCc1c2c(nc3ccc(O)cc13)-c1cc3c(c(=O)n1C2)COC(=O)[C@]3(O)CC` + Nc1ccc(C#CCN(C(=O)Cc2ncc(C(F)(F)F)cc2C(F)(F)F)c2ccc(F)cc2)nn1 as the molecule, how does the viability, T/C read?
**A.** 67.7%

**Q.** `COc1cccc(OCCCN)c1-c1cc(Nc2cnc(C#N)cn2)n[nH]1` + Nc1ccc(C#CCN(C(=O)Cc2ncc(C(F)(F)F)cc2C(F)(F)F)c2ccc(F)cc2)nn1 was tested. Which viability, T/C did it give?
**A.** 84.8%

Same assay, conditions: second compound 10 µM; first compound 0.01 µM; active compounds read low

**Q.** With `C=CCn1c(=O)c2cnc(Nc3ccc(N4CCN(C)CC4)cc3)nc2n1-c1cccc(C(C)(C)O)n1` + Nc1ccc(C#CCN(C(=O)Cc2ncc(C(F)(F)F)cc2C(F)(F)F)c2ccc(F)cc2)nn1 as the molecule, how does the viability, T/C read?
**A.** 83.7%
